From ChEMBL document CHEMBL1138636, “Potent inhibitors of the HIV-1 protease incorporating cyclic urea P1-P2 scaffold” (Bioorg Med Chem Lett, 2004)

These compounds were tested against Human immunodeficiency virus type 1 protease (Human immunodeficiency virus 1, UniProt Q72874) (assay: Potency to inhibit HIV-1 protease).
Compound `O=C(NC1c2ccccc2C[C@H]1O)[C@H](Cc1ccccc1)C[C@H](O)CN1C(=O)N(Cc2cccc(F)c2)CC1Cc1ccccc1` (stereo not given in full) has a Ki of 3.2 nM. In the case of `Cc1cc(CN2CC(Cc3ccccc3)N(C[C@@H](O)C[C@@H](Cc3ccccc3)C(=O)NC3c4ccccc4C[C@H]3O)C2=O)cc(C)c1C` (stereo not given in full), the Ki is reported as 100 nM. `O=C(NC1c2ccccc2C[C@H]1O)[C@H](Cc1ccccc1)C[C@H](O)CN1C(=O)N(Cc2ccncc2)CC1Cc1ccccc1` (stereo not given in full) was tested, and the Ki was 190 nM. With `C[C@]1(Cc2ccccc2)C[C@H](Cc2ccccc2)N(C[C@@H](O)C[C@@H](Cc2ccccc2)C(=O)N[C@H]2c3ccccc3C[C@H]2O)C1=O` the Ki was 170 nM. Compound `O=C(NC1c2ccccc2C[C@H]1O)[C@H](Cc1ccccc1)C[C@H](O)CN1C(=O)N(Cc2ccccn2)CC1Cc1ccccc1` (stereo not given in full) has a Ki of 41 nM. Compound `O=C(NC1c2ccccc2C[C@H]1O)[C@H](Cc1ccccc1)C[C@H](O)CN1C(=O)N(Cc2cccnc2)CC1Cc1ccccc1` (stereo not given in full) has a Ki of 18 nM. Compound `CS(=O)(=O)c1ccc(CN2CC(Cc3ccccc3)N(C[C@@H](O)C[C@@H](Cc3ccccc3)C(=O)NC3c4ccccc4C[C@H]3O)C2=O)cc1` (stereo not given in full) has a Ki of 300 nM. With `O=C(NC1c2ccccc2C[C@H]1O)[C@H](Cc1ccccc1)C[C@H](O)CN1C(=O)[C@@H](Cc2ccccc2)CC1Cc1ccccc1` (stereo not given in full) the Ki was 0.06 nM. For `COc1ccc(CN2CC(Cc3ccccc3)N(C[C@@H](O)C[C@@H](Cc3ccccc3)C(=O)NC3c4ccccc4C[C@H]3O)C2=O)cc1` (stereo not given in full), the Ki was 5.6 nM. With `O=C(NC1c2ccccc2C[C@H]1O)[C@H](Cc1ccccc1)C[C@H](O)CN1C(=O)N(Cc2ccccc2)CC1Cc1ccccc1` (stereo not given in full) the Ki was 1.2 nM.
